# Experimental data published in patent US9782411B2, “{4-[5-(3-chloro-phenoxy)-oxazolo[5,4-d]pyrimidin-2-yl]-2,6-dimethyl-phenoxy}-acetic acid for use in the prevention or treatment of acute kidney injury” (Sanofi, priority 2013, dated 2017).
# “And” between values parts separate entries of the source, which are not always exact repeats. Equal entries are not always repeated.
# Key:
# [1] = test system: pERK1/2; assay: ERK1/2 phosphorylation in HUVEC under starvation (western blot); type: cell-based, human; settings: Homo sapiens, HUVEC; 0.1% FBS; serum starvation
# Method: HUVEC cells (Lonza) were seeded at 0.3×10^6 cells per well in 6 multiwell plates in 2 mL per well complete EGM2 medium (Lonza) for 24 hours. Cells were starved […] for an additional 24 hour period in 900 μL quiescent medium. Increasing concentrations of compound A, BAF-312 or fingolimod (10×) were added under the volume of 100 μL in each well for 10 minutes at 37° C. After medium removal, cells were rinsed with cold PBS and cells lysed on ice in 100 μL RIPA buffer containing 1% triton, proteases and phosphatases inhibitors. For western blotting, 30 μg of total protein lysate were loaded in 4-12% bis-tris gels (Invitrogen). Following migration and transfer, nitrocellulose membranes were probed with anti phospho-Akt (Phospho-Ser473, Cst #2965) and anti phospho-Erk1/2 (Phospho Tyr202/Tyr204, Cst #4377). Tubuline labelling with anti α-Tubuline (Cst #2144) was used for normalization after densitometric analysis of the films.
# [2] = molecular target: T1, S1P5 (Homo sapiens, UniProt Q9H228); assay: FlipR (Chem) GPCRProfiler assay, S1P5; type: cell-based
# T1 sequence (Q9H228 whole entry): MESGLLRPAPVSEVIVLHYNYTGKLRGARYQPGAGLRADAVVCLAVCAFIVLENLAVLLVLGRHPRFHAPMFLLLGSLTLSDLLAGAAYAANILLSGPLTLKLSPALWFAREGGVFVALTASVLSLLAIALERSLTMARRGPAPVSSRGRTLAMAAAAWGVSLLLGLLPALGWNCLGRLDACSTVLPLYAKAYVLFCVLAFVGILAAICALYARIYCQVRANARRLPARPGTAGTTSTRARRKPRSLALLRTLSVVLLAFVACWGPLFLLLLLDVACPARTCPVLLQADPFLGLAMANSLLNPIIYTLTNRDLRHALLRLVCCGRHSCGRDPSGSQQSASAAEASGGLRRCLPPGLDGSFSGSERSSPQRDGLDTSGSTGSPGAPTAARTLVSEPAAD
# Source text: The GPCRProfiler® assay from Millipore was used to determine the EC50 activity of compound A, BAF-312 and fingolimod on S1P1, S1P2, S1P3, S1P4 or S1P5 receptors. These assays used ChemiScreen GPCR stable cell lines.
# [3] = molecular target: S1P2 (Homo sapiens, UniProt O95136); assay: PathHunter β-arrestin assay, S1P2; type: cell-based; settings: 0.5% FBS
# Chain of S1P2 (O95136 whole entry): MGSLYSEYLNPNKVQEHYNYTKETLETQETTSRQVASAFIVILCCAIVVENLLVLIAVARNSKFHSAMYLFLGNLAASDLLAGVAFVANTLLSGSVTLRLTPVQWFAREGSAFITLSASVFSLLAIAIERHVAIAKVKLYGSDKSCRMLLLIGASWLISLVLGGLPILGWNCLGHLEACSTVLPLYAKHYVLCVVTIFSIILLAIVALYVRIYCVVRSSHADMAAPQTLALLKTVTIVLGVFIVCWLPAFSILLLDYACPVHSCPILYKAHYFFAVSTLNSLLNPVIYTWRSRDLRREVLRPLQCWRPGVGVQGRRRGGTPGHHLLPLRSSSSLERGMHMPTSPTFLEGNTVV
# Method: (§1) The PathHunter® β-Arrestin Assay from DiscoverX was used to determine the EC50 activity of compound A, BAF-312 and fingolimod on S1P1, S1P2, S1P3, S1P4 or S1P5 receptors. The compounds were tested in assay medium containing 0.5% FBS.
# [4] = molecular target: T2, S1P4 (Homo sapiens, UniProt O95977); assay: PathHunter β-arrestin assay, S1P4; type: cell-based; settings: 0.5% FBS
# T2 sequence (O95977 1-384): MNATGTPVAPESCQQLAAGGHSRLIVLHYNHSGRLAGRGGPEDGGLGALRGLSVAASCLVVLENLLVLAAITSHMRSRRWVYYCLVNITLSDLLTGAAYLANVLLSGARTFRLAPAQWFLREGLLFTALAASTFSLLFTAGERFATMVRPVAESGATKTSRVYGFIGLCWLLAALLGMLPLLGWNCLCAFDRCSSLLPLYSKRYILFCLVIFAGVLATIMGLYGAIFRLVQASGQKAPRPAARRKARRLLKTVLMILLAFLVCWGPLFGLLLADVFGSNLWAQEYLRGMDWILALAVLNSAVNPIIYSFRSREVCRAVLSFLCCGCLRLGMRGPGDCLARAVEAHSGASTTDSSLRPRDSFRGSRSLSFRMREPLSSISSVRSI
# Method: as §1
# [5] = molecular target: T1, S1P5; assay: PathHunter β-arrestin assay, S1P5; type: cell-based; settings: 0.5% FBS
# Method: as §1
# [6] = test system: ICAM-I, VCAM-I, and P/E selectins; assay: TNFα-induced over-expression of adhesion molecules assay; type: cell-based; settings: three human endothelial cell types (HPAEC, HUVEC and HRGEC)
# Method: ICAM-1, VCAM-1 and P/E-selectins expression were measured in HUVEC by ELISA. HUVEC cells were seeded in 96 multiwell plates at 25×10^3 cells per well under the volume of 100 μL in EGM2 medium (Lonza) and allowed to adhere for 24 h. After 24 h, complete medium was replaced by quiescent medium (EGM2 without supplements and serum) for 3 hours. Following this, cells were pre-treated with compound A or BAF-312 (1-30 μM) for 18 h. Cells were then treated with TNF-α (3 ng/mL) in growth-factors free medium for an additional 6 h period. Medium was removed and cells were washed and fixed with 100 μL RLC2 solution per well (Alphelys #01-RLC2-RTU30) for 20 min at 4° C. Fixed cells were washed twice with 100 μL HBSS before addition of antibodies anti-ICAM-1 (#BBA3, R&D System), anti-VCAM-1 (#BBA5, R&D System) and anti-P/E-Selectins (#BBA1, R&D system) for 1 hour. Following extensive wash, anti-mouse IgG HRP (#NA931, Amersham) was added for 2 hours. Optical density was read at 450 nm (Envision) after washing and addition of HRP substrate (OPD, Sigma #P9187). Results are expressed as percent inhibition of TNF-α-induced adhesion molecule expression.
# [7] = molecular target: T3, S1P1 (Homo sapiens, UniProt P21453); assay: Impedance assay in HUVEC; type: cell-based; design: host or cells: HUVEC (primary); settings: 2% FBS
# T3 sequence (P21453 whole entry): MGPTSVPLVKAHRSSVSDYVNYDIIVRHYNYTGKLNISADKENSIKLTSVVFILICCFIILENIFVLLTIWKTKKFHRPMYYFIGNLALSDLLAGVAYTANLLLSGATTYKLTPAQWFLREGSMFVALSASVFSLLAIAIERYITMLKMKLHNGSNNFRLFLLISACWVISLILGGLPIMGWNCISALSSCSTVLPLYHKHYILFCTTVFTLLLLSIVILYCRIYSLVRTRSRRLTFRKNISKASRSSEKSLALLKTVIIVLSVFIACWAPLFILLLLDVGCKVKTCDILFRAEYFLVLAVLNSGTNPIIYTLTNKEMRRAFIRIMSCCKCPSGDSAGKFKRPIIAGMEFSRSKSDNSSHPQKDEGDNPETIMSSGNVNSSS
# Method: On day 1, primary cells were seeded into 96-well e-plates pre-coated with collagen-I with 20,000 cells per well. […] After incubation with the S1PR agonists, the cells were carefully washed twice with medium followed by a 5.5 h recovery period. Then the effect of the preceding 1st stimulation on receptor desensitization was assessed using a 2nd stimulation of increasing S1P concentrations (0.1, 1 and 10 μM) and measuring the resulting impedance. All measurements were done at least in triplicates. […] Results are expressed in arbitrary impedance unit as mean+/−s.e.m.
# [8] = molecular target: T3, S1P1; assay: GTPγS assay, CHO; type: biochemical; design: host or cells: CHO (PathHunter); settings: 0% proteins in assay media
# [9] = molecular target: T3, S1P1; assay: PathHunter β-arrestin assay, CHO; type: cell-based; design: host or cells: CHO (PathHunter); settings: 0.5% FBS
# Method: (§2) The compounds were tested in assay medium containing 0.5% FBS.
# [10] = molecular target: T3, S1P1; assay: PathHunter activated GPCR internalization assay, CHO; type: cell-based; design: host or cells: CHO (PathHunter); settings: 0.5% FBS
# Method: as §2
# [11] = molecular target: T3, S1P1; assay: Hit Hunter cAMP assay, CHO; type: cell-based; design: host or cells: CHO (PathHunter); settings: 0.5% FBS
# Method: The Hit Hunter® cAMP Assay from DiscoverX was used to determine the EC50 activity of compound A, BAF-312 and fingolimod on S1P1. The compounds were tested in assay medium containing 0.5% FBS.
# [12] = single experiments (footnote), read-out: EC50, β-arrestin assay, values of the 2 separate experiments
# [13] = starred values are means of 2 separate experiments, read-out: EC50, β-arrestin, CHO
# [14] = single experiments (footnote), read-out: EC50, internalisation assay, values of the 2 separate experiments
# [15] = starred values are means of 2 separate experiments, read-out: EC50, Internalization, CHO
SMILES,EC50 [1],EC50 [2],EC50 [3],EC50 [4],EC50 [5],TNFα-induced over-expression of adhesion molecules [6],EC50 [7],EC50 [8],"EC50 [9, 12]","EC50 [9, 13]","EC50 [10, 14]","EC50 [10, 15]",EC50 [11]
"Cc1cc(-c2nc3cnc(Oc4cccc(Cl)c4)nc3o2)cc(C)c1OCC(=O)O [Compound A, {4-[5-(3-chloro-phenoxy)-oxazolo[5,4-d]pyrimidin-2-yl]-2,6-dimethyl-phenoxy}-acetic acid]",0.19 µM,1 µM,> 10 µM,2.5 µM,1.3 µM,reduced TNFα-induced over-expression of adhesion molecules,0.172 µM,0.206 µM,0.8 µM and 0.511 µM,0.656 µM,0.16 µM and 0.266 µM,0.213 µM,0.0226 µM
CCc1cc(/C(C)=N/OCc2ccc(C3CCCCC3)c(C(F)(F)F)c2)ccc1CN1CC(C(=O)O)C1 [BAF-312],0.0049 µM,0.3 µM,> 10 µM,2.1 µM,0.035 µM,"unlike BAF-312, reduced TNFα-induced over-expression",0.00021 µM,0.0067 µM,0.0079 µM and 0.00283 µM,0.0054 µM,< 0.0005 µM and 0.00067 µM,< 0.00059 µM,0.00047 µM
